Measurements taken from US8362000B2, “Azetidinyl diamides as monoacylglycerol lipase inhibitors” (Janssen Pharmaceutica NV, priority 2009, dated 2013).

target: T1, MGL (Rattus norvegicus, UniProt Q8R431); assay: 2-AG accumulation assay in rat brain homogenate; assay type: biochemical; conditions: rat brain homogenate; compound 0.01 μM; 2-AG accumulation as percent of vehicle; read-out: Rat Brain 2AG % VehCntrl (%) @ 0.01 μM
T1 construct: one g rat brain was homogenized using a Polytron homogenizer; from tissue; host or cells: rat brain homogenate
T1 sequence (Q8R431 1-303): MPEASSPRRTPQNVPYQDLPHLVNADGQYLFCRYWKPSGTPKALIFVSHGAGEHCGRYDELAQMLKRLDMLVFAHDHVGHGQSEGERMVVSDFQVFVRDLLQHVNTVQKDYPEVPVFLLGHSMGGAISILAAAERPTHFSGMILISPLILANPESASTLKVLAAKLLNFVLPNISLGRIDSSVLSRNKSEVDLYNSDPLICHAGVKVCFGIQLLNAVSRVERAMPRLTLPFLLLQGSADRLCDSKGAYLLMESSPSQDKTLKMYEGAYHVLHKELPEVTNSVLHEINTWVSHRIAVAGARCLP

2-AG accumulation, % of vehicle control at 0.01 µM	Structure (SMILES)
123%	O=C(c1ccccc1)N1CCN(C2CN(C(=O)c3ccc(-c4cccc(C(F)(F)F)c4)cc3)C2)CC1 [Cpd 186, 1-(Phenylcarbonyl)-4-(1-{[3′-(trifluoromethyl)biphenyl-4-yl]carbonyl}azetidin-3-yl)piperazine]

same assay, conditions: rat brain homogenate; compound 0.1 μM; 2-AG accumulation as percent of vehicle; read-out: Rat Brain 2AG % VehCntrl (%) @ 0.1 μM

2-AG accumulation, % of vehicle control at 0.1 µM	Structure (SMILES)
199%	O=C(c1ccccc1)N1CCN(C2CN(C(=O)c3ccc(-c4cccc(C(F)(F)F)c4)cc3)C2)CC1 [Cpd 186, 1-(Phenylcarbonyl)-4-(1-{[3′-(trifluoromethyl)biphenyl-4-yl]carbonyl}azetidin-3-yl)piperazine]

same assay, conditions: rat brain homogenate; compound 1 μM; 2-AG accumulation as percent of vehicle; read-out: Rat Brain 2AG % VehCntrl (%) @ 1 μM

Structure (SMILES)	2-AG accumulation, % of vehicle control at 1 µM
O=C(c1ccccc1)N1CCN(C2CN(C(=O)c3ccc(-c4ccc(C(F)(F)F)s4)cc3)C2)CC1 [Cpd 581, 1-(Phenylcarbonyl)-4-[1-({4-[5-(trifluoromethyl)thiophen-2-yl]phenyl}carbonyl)azetidin-3-yl]piperazine]	140%
O=C(c1ccc(SCc2cccc(C(F)(F)F)c2)cc1)N1CC(N2CCN(C(=O)c3nccs3)CC2)C1 [Cpd 973]	806%
O=C(c1ccc2nc(-c3cccc(C(F)(F)F)c3)oc2c1)N1CC(N2CCN(C(=O)c3cscn3)CC2)C1 [Cpd 1151, 6-({3-[4-(1,3-Thiazol-4-ylcarbonyl)piperazin-1-yl]azetidin-1-yl}carbonyl)-2-[3-(trifluoromethyl)phenyl]-1,3-benzoxazole]	482%
O=C(c1ccc2c(c1)CCN(S(=O)(=O)c1ccccc1)C2)N1CC(N2CCN(C(=O)c3nccs3)CC2)C1 [Cpd 927]	850%
O=C(c1ccc2c(c1)CCN(S(=O)(=O)C1CCCCC1)C2)N1CC(N2CCN(C(=O)c3nccs3)CC2)C1 [Cpd 906]	896%
O=C(c1ccc(Sc2cccc(C(F)(F)F)c2)cc1)N1CC(N2CCN(C(=O)c3nccs3)CC2)C1 [Cpd 431]	703%
O=C(c1ccccc1)N1CCN(C2CN(C(=O)c3ccc(S(=O)(=O)c4cccc(Cl)c4)cc3)C2)CC1 [Cpd 433, 1-[1-({4-[(3-Chlorophenyl)sulfonyl]phenyl}carbonyl)azetidin-3-yl]-4-(phenylcarbonyl)piperazine]	159%
O=C(c1ccccc1)N1CCN(C2CN(C(=O)c3ccc(-c4cccc(C(F)(F)F)c4)cc3)C2)CC1 [Cpd 186, 1-(Phenylcarbonyl)-4-(1-{[3′-(trifluoromethyl)biphenyl-4-yl]carbonyl}azetidin-3-yl)piperazine]	260%
O=C(c1ccccc1)N1CCN(C2CN(C(=O)c3sc4cc(C(F)(F)F)ccc4c3Cl)C2)CC1 [Cpd 336]	223%
O=C(c1ccccc1)N1CCN(C2CN(C(=O)c3ccc4c(ccn4-c4ccc(F)cc4F)c3)C2)CC1 [Cpd 579, 1-(2,4-Difluorophenyl)-5-({3-[4-(phenylcarbonyl)piperazin-1-yl]azetidin-1-yl}carbonyl)-1H-indole]	265%

Next, values leading:

2-AG accumulation, % of vehicle control at 1 µM	Structure (SMILES)
839%	NC(=O)c1ccc(-n2ccc3cc(C(=O)N4CC(N5CCN(C(=O)c6nccs6)CC5)C4)ccc32)cc1 [Cpd 1171]
570%	O=C(c1ccc2c(c1)ncn2-c1ccc(C(F)(F)F)cc1)N1CC(N2CCN(C(=O)c3nccs3)CC2)C1 [Cpd 1064, 5-({3-[4-(1,3-Thiazol-2-ylcarbonyl)piperazin-1-yl]azetidin-1-yl}carbonyl)-1-[4-(trifluoromethyl)phenyl]-1H-benzimidazole]
393%	O=C(c1ccc2c(c1)ncn2-c1ccc(F)c(F)c1)N1CC(N2CCN(C(=O)c3nccs3)CC2)C1 [Cpd 1186]
128%	O=C(c1ccccc1)N1CCN(C2CN(C(=O)c3ccc4c(ccn4-c4ncccn4)c3)C2)CC1 [Cpd 595, 5-({3-[4-(Phenylcarbonyl)piperazin-1-yl]azetidin-1-yl}carbonyl)-1-pyrimidin-2-yl-1H-indole]
867%	O=C(c1ccc(C(F)(F)F)cc1)N1CCc2cc(C(=O)N3CC(N4CCN(C(=O)c5nccs5)CC4)C3)ccc2C1 [Cpd 907, 6-({3-[4-(1,3-Thiazol-2-ylcarbonyl)piperazin-1-yl]azetidin-1-yl}carbonyl)-2-{[4-(trifluoromethyl)phenyl]carbonyl}-1,2,3,4-tetrahydroisoquinoline]

same assay, conditions: rat brain homogenate; compound 10 μM; 2-AG accumulation as percent of vehicle; read-out: Rat Brain 2AG % VehCntrl (%) @ 10 μM

Structure (SMILES)	2-AG accumulation, % of vehicle control at 10 µM
O=C(c1ccccc1)N1CCN(C2CN(C(=O)c3ccc(OCc4ccc5ccccc5c4)cc3)C2)CC1 [Cpd 380, 1-(1-{[4-(Naphthalen-2-ylmethoxy)phenyl]carbonyl}azetidin-3-yl)-4-(phenylcarbonyl)piperazine]	773%
O=C(/C=C/c1ccc(SC(F)(F)F)cc1)N1CC(N2CCN(C(=O)c3nccs3)CC2)C1 [Cpd 283]	605%
O=C(c1ccc(-c2ccccc2C(F)(F)F)cc1)N1CC(N2CCN(C(=O)c3nccs3)CC2)C1 [Cpd 147, 1-(1,3-Thiazol-2-ylcarbonyl)-4-(1-{[2′-(trifluoromethyl)biphenyl-4-yl]carbonyl}azetidin-3-yl)piperazine]	676%
O=C(CCc1ccc(Cl)c(Cl)c1)N1CC(N2CCN(C(=O)c3nccs3)CC2)C1 [Cpd 281, 1-{1-[3-(3,4-Dichlorophenyl)propanoyl]azetidin-3-yl}-4-(1,3-thiazol-2-ylcarbonyl)piperazine]	201%
O=C(CCc1c(Cl)cccc1Cl)N1CC(N2CCN(C(=O)c3nccs3)CC2)C1 [Cpd 274, 1-{1-[3-(2,6-Dichlorophenyl)propanoyl]azetidin-3-yl}-4-(1,3-thiazol-2-ylcarbonyl)piperazine]	876%
N#CCc1cccc(-c2ccc(C(=O)N3CC(N4CCN(C(=O)c5nccs5)CC4)C3)cc2)c1 [Cpd 207, [4′-({3-[4-(1,3-Thiazol-2-ylcarbonyl)piperazin-1-yl]azetidin-1-yl}carbonyl)biphenyl-3-yl]acetonitrile]	402%
O=C(c1ccccc1)N1CCN(C2CN(C(=O)c3cc4ccc(-c5ccccc5)cc4s3)C2)CC1 [Cpd 342, 1-{1-[(6-Phenyl-1-benzothiophen-2-yl)carbonyl]azetidin-3-yl}-4-(phenylcarbonyl)piperazine]	288%
Cc1c(C(=O)N2CC(N3CCN(C(=O)c4ccccc4)CC3)C2)sc2ccc(Cl)cc12 [Cpd 120, 1-{1-[(5-Chloro-3-methyl-1-benzothiophen-2-yl)carbonyl]azetidin-3-yl}-4-(phenylcarbonyl)piperazine]	483%
CN(C)S(=O)(=O)c1ccc(-c2ccc(C(=O)N3CC(N4CCN(C(=O)c5nccs5)CC4)C3)cc2)cc1 [Cpd 213, N,N-Dimethyl-4′-({3-[4-(1,3-thiazol-2-ylcarbonyl)piperazin-1-yl]azetidin-1-yl}carbonyl)biphenyl-4-sulfonamide]	104%
Cc1ccc(-c2nc(C)c(C(=O)N3CC(N4CCN(C(=O)c5nccs5)CC4)C3)s2)cc1 [Cpd 135, 1-(1-{[4-Methyl-2-(4-methylphenyl)-1,3-thiazol-5-yl]carbonyl}azetidin-3-yl)-4-(1,3-thiazol-2-ylcarbonyl)piperazine]	592%
CC(C)COc1cccc(-c2ccc(C(=O)N3CC(N4CCN(C(=O)c5nccs5)CC4)C3)cc2)c1 [Cpd 221, 1-(1-{[3′-(2-Methylpropoxy)biphenyl-4-yl]carbonyl}azetidin-3-yl)-4-(1,3-thiazol-2-ylcarbonyl)piperazine]	945%
O=C(c1ccccc1)N1CCN(C2CN(C(=O)c3ccc(-c4cccc(C(F)(F)F)c4)cc3)C2)CC1 [Cpd 186, 1-(Phenylcarbonyl)-4-(1-{[3′-(trifluoromethyl)biphenyl-4-yl]carbonyl}azetidin-3-yl)piperazine]	521%
O=C(c1ccccc1)N1CC(N2CCN(C(=O)c3ccc(-c4ccccc4)cc3)C(c3ccccc3)C2)C1 (stereo not shown) [Cpd 44, 1-(Biphenyl-4-ylcarbonyl)-2-phenyl-4-[1-(phenylcarbonyl)azetidin-3-yl]piperazine]	238%
CC(C)(C)OC(=O)Nc1cccc(-c2ccc(C(=O)N3CC(N4CCN(C(=O)c5nccs5)CC4)C3)cc2)c1 [Cpd 220, tert-Butyl [4′-({3-[4-(1,3-thiazol-2-ylcarbonyl)piperazin-1-yl]azetidin-1-yl}carbonyl)biphenyl-3-yl]carbamate]	993%

Continued, values first:

2-AG accumulation, % of vehicle control at 10 µM	Structure (SMILES)
122%	O=Cc1cccc(-c2ccc(C(=O)N3CC(N4CCN(C(=O)c5nccs5)CC4)C3)cc2)c1 [Cpd 210, 4′-({3-[4-(1,3-Thiazol-2-ylcarbonyl)piperazin-1-yl]azetidin-1-yl}carbonyl)biphenyl-3-carbaldehyde]
906%	COC(=O)C=Cc1ccc(-c2ccc(C(=O)N3CC(N4CCN(C(=O)c5nccs5)CC4)C3)cc2)cc1 [Cpd 224, Methyl 3-[4′-({3-[4-(1,3-thiazol-2-ylcarbonyl)piperazin-1-yl]azetidin-1-yl}carbonyl)biphenyl-4-yl]prop-2-enoate]
725%	O=C(c1ccc(-c2ccc(O)cc2)cc1)N1CC(N2CCN(C(=O)c3nccs3)CC2)C1 [Cpd 211, 4′-({3-[4-(1,3-Thiazol-2-ylcarbonyl)piperazin-1-yl]azetidin-1-yl}carbonyl)biphenyl-4-ol]
703%	COc1cccc(-c2ccc(C(=O)N3CC(N4CCN(C(=O)c5nccs5)CC4)C3)cc2)c1 [Cpd 180, 1-{1-[(3′-Methoxybiphenyl-4-yl)carbonyl]azetidin-3-yl}-4-(1,3-thiazol-2-ylcarbonyl)piperazine]
768%	Cc1ccc(F)cc1-c1ccc(C(=O)N2CC(N3CCN(C(=O)c4nccs4)CC3)C2)cc1 [Cpd 177, 1-{1-[(5′-Fluoro-2′-methylbiphenyl-4-yl)carbonyl]azetidin-3-yl}-4-(1,3-thiazol-2-ylcarbonyl)piperazine]
688%	O=C(c1ccccc1)N1CCN(C2CN(C(=O)c3ccc4c(ccn4-c4ccccc4)c3)C2)CC1 [Cpd 128, 1-Phenyl-5-({3-[4-(phenylcarbonyl)piperazin-1-yl]azetidin-1-yl}carbonyl)-1H-indole]
